US20130158122A1, “EP2 Agonist from Non-Prostanoid Structures Designed as PGE2 Antagonists” (ALLERGAN, INC., priority 2010, published 2013)

System: Beagle dogs
Assay: Intraocular pressure studies in dogs (applanation pneumatonometry)
Type: in vivo
Conditions: conscious Beagle dogs, topical to one eye, approx. 35 μl, IOP before and at 2, 4, 6 hours on each day of 5 day study; vehicle in other eye
Procedure: Measurement of intraocular pressure studies in dogs will involve applanation pneumatonometry performed in Beagle dogs of both sexes. The animals will remain conscious throughout the study and will be gently restrained by hand. Compound 4-{[5-chloro-2-(4-chloro-benzyloxy)-benzoylamino]-methyl}-benzoic acid will be administered topically to one eye using a dropper bottle to deliver approximately a 35 μl volume, the other eye received vehicle (1% polysorbate 80 in 5 mM Tris HCl) as a control. Proparacaine at 0.25% was used for corneal anesthesia during tonometry. Intraocular pressure will be determined just before drug administration and at 2, 4, 6 hours thereafter on each day of the 5 day study. Measurement of ocular surface hyperemia will be performed immediately before each of the intraocular pressure readings. Ocular surface hyperemia grading will be semi-quantitative and assessed according to a 5 point scoring scale used for clinical evaluations: 0=none; 0.5=trace; 1=mild; 2=moderate; and 3=severe.

`O=C(O)c1ccc(CNC(=O)c2cc(Cl)ccc2OCc2ccc(Cl)cc2)cc1` [4-{[5-chloro-2-(4-chloro-benzyloxy)-benzoylamino]-methyl}-benzoic acid] was tested, and the intraocular pressure was “significantly reduce intraocular pressure”.
